Source: US20080214844A1, “Icaritin and desmethylicaritin as anti-cancer agents” (priority 2007, published 2008)

What was measured:
[1] = test system: LNCAP; experiment: MTT cell viability assay, LNCAP; assay type: cell-based, human; conditions: Homo sapiens, 72 h, Prostate, 3 days culture
Protocol: (§1) 26 cancer cell lines were grown in normal growth medium in the presence of different concentrations Icaritin or Desmethylicaritin. After culture for 3 days, the cell viability was then measured by an MTT assay. […] Some EC50s were lower than 10 uM for these two compounds. […] Whereas, normal human mammary gland epithelial cells (MCF10A) were not sensitive to Icaritin and Desmethylicaritin. These cells grew well when treated with these two compounds at a concentration of 50 uM.

[2] = test system: PC3; experiment: MTT cell viability assay, PC3; assay type: cell-based, human; conditions: Homo sapiens, PC-3, 72 h, PC3, Prostate, 3 days culture
Protocol: as §1

[3] = test system: Widr; experiment: MTT cell viability assay, Widr; assay type: cell-based, human; conditions: Homo sapiens, 72 h, Colon, 3 days culture
Protocol: as §1

[4] = test system: LoVo; experiment: MTT cell viability assay, LoVo; assay type: cell-based, human; conditions: Homo sapiens, 72 h, Colon, 3 days culture
Protocol: as §1

[5] = test system: CCL-225; experiment: MTT cell viability assay, CCL-225; assay type: cell-based, human; conditions: Homo sapiens, 72 h, CCL-225, Colon, 3 days culture
Protocol: as §1

[6] = test system: NCI-H23; experiment: MTT cell viability assay, NCI-H23; assay type: cell-based, human; conditions: Homo sapiens, 72 h, NCI-H23, Lung, 3 days culture
Protocol: as §1

[7] = test system: A549; experiment: MTT cell viability assay, A549; assay type: cell-based, human; conditions: Homo sapiens, 72 h, A549, Lung, 3 days culture
Protocol: as §1

[8] = test system: MDA-MB-435; experiment: MTT cell viability assay, MDA-MB-435; assay type: cell-based, human; conditions: Homo sapiens, 72 h, MDA-MB-435, Breast, 3 days culture
Protocol: as §1

[9] = test system: AU-565; experiment: MTT cell viability assay, AU-565; assay type: cell-based, human; conditions: Homo sapiens, AU565, 72 h, AU-565, Breast, 3 days culture
Protocol: as §1

[10] = test system: BT-549; experiment: MTT cell viability assay, BT-549; assay type: cell-based, human; conditions: Homo sapiens, 72 h, BT-549, Breast, 3 days culture
Protocol: as §1

[11] = test system: MCF-7; experiment: MTT cell viability assay, MCF-7; assay type: cell-based, human; conditions: Homo sapiens, MCF7, 72 h, MCF-7, Breast, 3 days culture
Protocol: as §1

[12] = test system: Caki-1; experiment: MTT cell viability assay, Caki-1; assay type: cell-based, human; conditions: Homo sapiens, 72 h, Caki-1, Kidney, 3 days culture
Protocol: as §1

[13] = test system: ACHN; experiment: MTT cell viability assay, ACHN; assay type: cell-based, human; conditions: Homo sapiens, 72 h, Kidney, 3 days culture
Protocol: as §1

[14] = test system: 786-O; experiment: MTT cell viability assay, 786-O; assay type: cell-based, human; conditions: Homo sapiens, 786-0, 72 h, Kidney, 3 days culture
Protocol: as §1

[15] = test system: SN12C; experiment: MTT cell viability assay, SN12C; assay type: cell-based, human; conditions: Homo sapiens, 72 h, Kidney, 3 days culture
Protocol: as §1

[16] = test system: Mid PaCa-2; experiment: MTT cell viability assay, Mid PaCa-2; assay type: cell-based, human; conditions: Homo sapiens, 72 h, Mid PaCa-2, Pancreas, 3 days culture
Protocol: as §1

[17] = test system: U-251; experiment: MTT cell viability assay, U-251; assay type: cell-based, human; conditions: Homo sapiens, 72 h, U-251, Glioblastoma, 3 days culture
Protocol: as §1

[18] = test system: SK-MEL-5; experiment: MTT cell viability assay, SK-MEL-5; assay type: cell-based, human; conditions: Homo sapiens, 72 h, SK-MEL-5, Skin, 3 days culture
Protocol: as §1

[19] = test system: G-361; experiment: MTT cell viability assay, G-361; assay type: cell-based, human; conditions: Homo sapiens, 72 h, G-361, Skin, 3 days culture
Protocol: as §1

[20] = test system: Raji; experiment: MTT cell viability assay, Raji; assay type: cell-based, human; conditions: Homo sapiens, 72 h, Lymphoma, 3 days culture
Protocol: as §1

[21] = test system: MCF-10a; experiment: MTT cell viability assay, MCF-10a normal breast epithelial cells; assay type: cell-based, human
Protocol: as §1

[22] = test system: FAS protein levels in LNCaP cells; experiment: Western blot analysis for FAS protein levels; assay type: cell-based, human
[23] = test system: human micro vessel endothelial cell (HMVECs); experiment: HMVEC proliferation assay; assay type: cell-based
Protocol: Icaritin is a potent inhibitor of angiogenesis. Inhibition of human micro vessel endothelial cell (HMVECs) proliferation by Icaritin was investigated. HMVEC proliferation in response to Icaritin was determined using a modified method from previously described procedures. Briefly, HMVECs fed 1 day before use (with a fresh media exchange to obtain optimal growth conditions) were trypsinized and resuspended at 5×10^4 cells/ml in EBM (Clonetics)+2% FBS+gentamicin. An equivalent number of cells (2.5×10^3) in 50 μl cell suspension was plated nonconfluently onto each well of a 96-well plate and allowed to adhere for 4 h at 37° C. Serial Icaritin dilutions were prepared in this media at 3× concentration, of which 50 μl was added to the 100 μl cell suspension already in the wells, resulting in 150 μl 1× dilutions. The plate was incubated for up to 72 h at 37° C. […] Absorbance was read at 490 nm on an ELISA plate reader with Microplate Manager (Bio-Rad, Richmond, Calif.). Proliferation curves for HMVECs were determined, and measurements were obtained and compared in the log proliferation phase, which was 3 days (t=72 h) for the conditions described. […]

[24] = test system: human lung cancer; experiment: Human lung cancer xenograft model; assay type: in vivo
Source text: (§2) ICA was extensively biotransformed and converted to at least three metabolites: Icariside II (molecule weight=514), Icaritin (molecule weight=368), and Desmethylicaritin (molecule weight=354). […] Icaritin and Desmethylicaritin have huge potentials to be developed as novel and broad anti cancer drugs.
FIG. 2. Response of Human Lung tumor to treatment with Icaritin and Desmethyliciarityn.

[25] = test system: human colon cancer; experiment: Human colon cancer xenograft model; assay type: in vivo
Source text: as §2
FIG. 3. Response of Human Colon tumor to treatment with Icaritin and Desmethyliciarityn.

[26] = test system: estrogen receptor; conditions: mediated by the estrogen receptor; cited from earlier work

IC50 [1]: 5.3 µM
IC50 [2]: 9.4 µM
IC50 [4]: 10.3 µM
IC50 [6]: 6 µM
IC50 [7]: 10.6 µM
IC50 [8]: 10.2 µM
IC50 [10]: 8 µM
IC50 [11]: 18.2 µM
IC50 [13]: 9.5 µM
IC50 [14]: 10.5 µM
IC50 [17]: 7.1 µM
IC50 [18]: 9.9 µM
IC50 [20]: 5.4 µM
SMILES: COc1ccc(-c2oc3c(CC=C(C)C)c(O)cc(O)c3c(=O)c2O)cc1 [Icaritin]
IC50 [3]: 10.6 µM
IC50 [5]: 8.8 µM
IC50 [9]: 7.9 µM
IC50 [12]: 7 µM
IC50 [15]: 15.8 µM
IC50 [16]: 8.1 µM
IC50 [19]: 6.9 µM
IC50 ([21]; Homo sapiens, 72 h, MCF-10a, Normal breast epithelial cells, 3 days culture, MTT): > 50 µM
sensitivity of normal human mammary gland epithelial cells (MCF10A) ([21]; cells grew well at 50 uM): not sensitive
FAS protein levels (Western blot) [22]: did not influence
inhibition of proliferation and inducing cell apoptosis ([23]; 10 uM, HUVECs and HMVECs): significant levels of inhibition
EC50 ([23]; Homo sapiens, HMVEC, 72 h, Cell Titer 96 Aqueous assay, read-out: EC50, inhibition of HMVEC proliferation): 8.7 µM
human lung cancer cell growth in vivo [24]: strongly inhibiting
human colon cancer cell growth in vivo [25]: strongly inhibiting
estrogenic effect [26]: week phytoestrogens
